Reference: patent US20170234881A1, “METHODS OF DIAGNOSING AND TREATING CANCER” (INSERM ( INSTITUT NATIONAL DE LA SANTÉ ET DE LA RECHERCHE …, priority 2014, published 2017)

What was measured:
[1] = tested on: TS/A cells; assay: Cell invasion assay (matrigel-coated filters), TS/A; format: cell-based, mouse; settings: concentration-dependent, level reached
Protocol: FIG. 2. OCDO is a tumor promoter in vitro and in vivo and its inhibition contributes to the anti-tumor effects of Tam and DDA. (A, B) Histograms representing the effect of OCDO or 17β-estrogen (E2) on MCF7 (A) and TS/A (B) cell proliferation after 24 h treatment using a colorimetric immunoassay measuring BrDU incorporation in DNA (C, D) Histogram representing the effect of OCDO on MCF7 (C) and TS/A (D) cell invasion. Data are the mean of three separate experiments (±s.e.m), *P<0.05, **P<0.01, ***P<0.001 (Student's t-test). (E, F) Mice were implanted s.c. with MCF7 (E) or TS/A (F) cells and animals (8 per group) were treated s.c. every day starting on the day of implantation with either the solvent vehicle or OCDO (16 μg/kg for MCF7 or 50 μg/kg for TS/A). Animals were monitored for tumour growth twice a week. The data are representative of three independent experiments. The mean tumor volume±s.e.m is shown, *P<0.05, **P<0.01, ***P<0.001 (analysis of variance (ANOVA), Dunnett's post test). (G) Mean (±s.e.m) of Ki67 positive cell number determined from IHC staining of MCF7 tumor sections from (E), n=8, *P<0.05 (Student's t-test) using HistoQuant, Pannoramic Viewer (3DHistech). […]
Invasion assays were carried out using Bio-Coat migration chambers (BD Falcon) with 8 μm filters previously coated with matrigel. […] The entire membranes were mounted on glass slides, and were counted under a microscope. […]

[2] = tested on: TS/A tumors; assay: Growth of TS/A tumors implanted s.c. into mice; format: in vivo
Protocol: FIG. 2. OCDO is a tumor promoter in vitro and in vivo and its inhibition contributes to the anti-tumor effects of Tam and DDA. (A, B) Histograms representing the effect of OCDO or 17β-estrogen (E2) on MCF7 (A) and TS/A (B) cell proliferation after 24 h treatment using a colorimetric immunoassay measuring BrDU incorporation in DNA (C, D) Histogram representing the effect of OCDO on MCF7 (C) and TS/A (D) cell invasion. Data are the mean of three separate experiments (±s.e.m), *P<0.05, **P<0.01, ***P<0.001 (Student's t-test). (E, F) Mice were implanted s.c. with MCF7 (E) or TS/A (F) cells and animals (8 per group) were treated s.c. every day starting on the day of implantation with either the solvent vehicle or OCDO (16 μg/kg for MCF7 or 50 μg/kg for TS/A). Animals were monitored for tumour growth twice a week. The data are representative of three independent experiments. The mean tumor volume±s.e.m is shown, *P<0.05, **P<0.01, ***P<0.001 (analysis of variance (ANOVA), Dunnett's post test). (G) Mean (±s.e.m) of Ki67 positive cell number determined from IHC staining of MCF7 tumor sections from (E), n=8, *P<0.05 (Student's t-test) using HistoQuant, Pannoramic Viewer (3DHistech). (H) Representative Ki67 staining of TS/A tumor sections from (F) showing increased staining in OCDO-treated tumor compared with control-treated tumor. (I, J, K). Murine E0771(I), or human MDA-MB231 (J) or MDA-MB468 (K) cells implanted s.c. into mice (8 per group) and animals were treated s.c. with either the solvent vehicle or OCDO (16 μg/kg for MDA-MB-231 and MDA-MB-468 or 50 μg/kg for E0771). The data are representative of two independent experiments. Statistical analysis was performed as in E and F. (L) Mice were implanted s.c. with TS/A cells and animals (8 per group) were treated s.c. every day with either the solvent vehicle, OCDO (50 μg/kg), Tam (56 mg/kg), DDA (20 mg/kg) or the combination of Tam (56 mg/kg) +OCDO (50 μg/kg) or DDA (20 mg/kg)+OCDO (50 μg/kg). The data are representative of three independent experiments. Statistical analysis was performed as in E and F.
Exponentially growing MCF7, ShMCF7, E0771, MDA-MB231, MDA-MB468 and TS/A cells were collected, washed twice in PBS and resuspended in PBS. TS/A and E9771 tumours were prepared by subcutaneous transplantation of 35×10^3 cells or 3×10^5 cells respectively in 100 μl PBS into the flank of BALB/c or C57B16 mice. For other tumors, 5 to 10×10^6 cells in 200 μl PBS/matrigel (1/1) were injected into the flank of NMRI nude mice. Animals were treated as indicated in the legends. Animals were examined daily, and body weights were measured twice per week. In all the experiments, the tumor volume was determined by direct measurement with a caliper and was calculated using the formula (width^2×length)/2. Tumors were either frozen in liquid nitrogen or fixed in 10% neutral-buffered formalin and embedded in paraffin for immunohistochemical analysis. Paraffin sections were stained with haematoxylin and eosin for histomorphological analyses. Immunohistochemical staining was done on paraffin-embedded tissue sections, using a specific Ki67 antibody (Dako).
We then assayed the anti-growth effect of Tam or DDA against TS/A tumors in the absence and presence of OCDO. As above, TS/A tumors implanted into immunocompetent mice were treated s.c. every day either with either the solvent vehicle (control), OCDO (50 μg/kg), Tam (56 mg/kg), DDA (20 mg/kg) or the combination of Tam (56 mg/kg)+OCDO (50 μg/kg) or DDA (20 mg/kg) +OCDO (50 μg/kg).

[3] = tested on: HSD1-transfected MCF7 cells; assay: Proliferation of 11βHSD1-transfected MCF7 cells (BrDU); format: cell-based, human; settings: 5 μM OCDO for 24 h
Protocol: FIG. 5. Ectopic expression of 11βHSD1 in MCF7 inhibits cell proliferation and OCDO reverses this effect. MCF7 cells were transfected by electroporation with a plasmid coding either the enzymes 11βHSD1 (HSD1) or the control empty vector (mock) and analyzed as followed: (A) the expression of 11βHSD1 was confirmed by immunoblotting using specific antibody against 11βHSD1 and normalized with actin; (B) The production of CT was determined by incubating the mock or the HSD1-transfected cells with ^14C-OCDO for 72 h at 37° C. The radioactive metabolites of interest were analyzed as in the legend of FIG. 4B. (C) The proliferation of the mock- or the HSD1-transfected MCF7 cells treated or not with 5 μM OCDO for 24 h were analyzed as in FIG. 2A. The results in B and C are the mean (±s.e.m) of three to five experiments, **P<0.01, ***P<0.001 (Student's t-test), ns: non specific.
MCF7 or HEK293T cells (5×10^6 cells) were transfected with 5 μg of the indicated plasmid using the NEON Transfection System and according to the manufacturer's recommendations. […] Several clones were analyzed by immunoblot analysis and real time RT-qPCR for the knock down of the expression of the protein of interest. […]

## CC(C)CCC[C@@H](C)[C@H]1CC[C@H]2[C@@H]3CC(=O)[C@@]4(O)C[C@@H](O)CC[C@]4(C)[C@H]3CC[C@]12C [OCDO, 6-oxo-cholestan-3β,5α-diol]
[1]
  invasiveness compared with the control: 2.3 fold
[2]; TS/A tumors in immunocompetent mice, OCDO 50 μg/kg s.c. every day
  tumor growth compared with the control group: significantly increased
[2]; TS/A tumors, IHC
  proliferative marker Ki67 in tumors compared with control-treated tumors: increased
[2]; after 13 days of treatment, OCDO 50 μg/kg s.c. every day, p<0.01
  enhancement of TS/A tumor growth compared with the control group: 140%
[3]
  effect on the decrease of cell proliferation induced by 11βHSD1 expression: reversed this effect
